Reference: patent US20220154242A1, “METHOD FOR MODIFYING SUBSTRATE SPECIFICITY OF GLUCOSE DEHYDROGENASE AND AGENT FOR MODIFYING SUBSTRATE SPECIFICITY OF GLUCOSE DEHYDROGENASE” (KIKKOMAN CORPORATION, priority 2019, published 2022)

Legend:
[1] = test system: MrdGDH; assay: Maltose/glucose response current ratio, IPPD/MrdGDH-immobilized screen-printed electrode (chronoamperometry); format: biochemical, Mucor RD056860; details: for Maltose/Glucose (%) / Relative value (%) of Maltose/Glucose: 5 mM additive; for Maltose/Glucose (%): 1 mM maltose, 1 mM glucose; for Relative value (%) of Maltose/Glucose: no modifier = 100%
From the text: (§1) The ratio (Mal/Glu) of the reactivity of the glucose dehydrogenase to maltose (Mal) relative to the reactivity thereof to glucose (Glu) can be determined by the following procedures. Onto a printed carbon electrode, N-isopropyl-N′-phenyl-p-phenylenediamine (IPPD) is immobilized by adsorption and a glucose dehydrogenase is immobilized by cross-linking using glutaraldehyde, wherein the glucose dehydrogenase is, for example, a glucose dehydrogenase from a microorganism of the genus Mucor or a glucose dehydrogenase from a microorganism of the genus Aspergillus. Chronoamperometry is performed by using a three-electrode system composed of a working electrode, a counter electrode, and a reference electrode and applying a potential of +250 mV (Ag/AgCl). Once the current value has become sufficiently constant, maltose is added to a final concentration of 1 mM in phosphate-buffered saline (PBS) (for example, maltose is added 100 seconds after the start of measurement). Next, once the current value has become sufficiently constant again after the addition of maltose, glucose is added to a final concentration of 1 mM in phosphate-buffered saline (PBS) (for example, glucose is added 100 seconds after the addition of maltose). The substrate specificity of glucose dehydrogenase can be evaluated by measuring the reactivity thereof to maltose when the reactivity thereof to glucose is considered as 100%. In the present specification, the ratio of the reactivity to maltose (Mal) relative to the reactivity to glucose (Glu) may be denoted as Mal/Glu. When the reactivity is evaluated based on the response current(s), the ratio of the reactivity may be expressed as the ratio of the response current(s).
(§2) 10 μL of 12 mg/ml MpGDH purified preparation, 10 μL of 15 mM each glucose analog, and 10 μL of 20 mM potassium phosphate buffer were mixed and allowed to stand for 2 hours or longer. N-isopropyl-N′-phenyl-p-phenylenediamine (IPPD) was immobilized by adsorption onto screen-printed electrodes (manufactured by DropSens, Product number: DRP-C110) and 12 μg of each MpGDH was applied to the electrodes and allowed to dry at room temperature. Lastly, the electrodes were placed in 25% glutaraldehyde vapor and the resulting electrodes were washed with pure water to obtain IPPD.MpGDH-immobilized electrodes. Next, the electrode was connected to an ALS electrochemical analyzer 814D via a dedicated connector (DRP-CAC). Then, the IPPD.GDH-immobilized electrode, an Ag/AgCl reference electrode, and a platinum counter electrode were immersed in PBS and chronoamperometric measurement was carried out. The applied voltage was set to +250 mV (Ag/AgCl). Once the current value had become sufficiently constant (about 100 seconds after the start of measurement), maltose was added to a final concentration of 1 mM in PBS. Next, subsequently to the addition of the maltose solution, once the current value had become sufficiently constant again (about 100 seconds after the addition of maltose), a glucose solution was added to a final concentration of 1 mM. The difference in the response current before and after the addition of maltose was recorded as the response current value of maltose, and the difference in the response current before and after the addition of glucose was recorded as the response current value of glucose. The value calculated by dividing the response current value of maltose by the response current value of glucose was expressed as maltose/glucose (%). […] Furthermore, when the maltose/glucose of MpGDH in the absence of a substrate specificity modifier is considered as 100%, the value in the presence of D-glucal became 69%, and the substrate specificity was modified.
(§3) In the same manner, MrdGDH was used to examine the effect of the substrate specificity modifier.

[2] = test system: GLD1 (glucose dehydrogenase (FAD-dependent), BBI Solutions); assay: Maltose/glucose response current ratio, IPPD/GLD1-immobilized screen-printed electrode (chronoamperometry); format: biochemical, Aspergillus; details: for Maltose/Glucose (%) / Relative value (%) of Maltose/Glucose: 5 mM additive; for Maltose/Glucose (%): 1 mM maltose, 1 mM glucose; for Relative value (%) of Maltose/Glucose: no modifier = 100%
From the text: as §1, §2
In the same manner, glucose dehydrogenase (FAD-dependent) (from BBI Solutions, Product Code: GLD1, hereinafter denoted as GLD1) was used to examine the effect of the substrate specificity modifier.

[3] = test system: GLD1 (glucose dehydrogenase (FAD-dependent), BBI Solutions); assay: Maltose/glucose response current ratio, unimmobilized GLD1 with mPMS (chronoamperometry); format: biochemical, Aspergillus; details: for Maltose/Glucose (%) / Relative value (%) of Maltose/Glucose: 5 mM additive; for Maltose/Glucose (%): mPMS; for Relative value (%) of Maltose/Glucose: no modifier = 100%
Experimental: (§4) 10 μL of 12 mg/ml MpGDH purified preparation, 10 μL of 15 mM each glucose analog, and 10 μL of 20 mM potassium phosphate buffer were mixed and allowed to stand for 2 hours or longer. Onto screen-printed electrodes (manufactured by DropSens, Product number: DRP-C110), 80 μL of PBS, 5 μL of each MpGDH solution, and 10 μL of 2 mg/ml mPMS solution were applied and mixed. Chronoamperometric measurement was carried out at an applied voltage of +100 mV (Ag/Ag+). Once the current value had become sufficiently constant (about 100 seconds after the start of measurement), a maltose solution was added to a final concentration of 5 mM and mixed by pipetting up and down. Measurement was stopped once the current value had become sufficiently constant. The difference in the response current before and after the addition of maltose was regarded as the response current value of maltose. In contrast, when an equivalent amount of pure water was added instead of the maltose solution, increase in the response current was not observed. The used printed electrode was thoroughly washed with ultrapure water and dried, and then chronoamperometric measurement was carried out in the same manner as above. A glucose solution was added instead of the maltose solution and the response current value of glucose was measured. The value calculated by dividing the response current value of maltose by the response current value of glucose was expressed as maltose/glucose (%).
In the same manner, GLD1 was used to examine the effect of the substrate specificity modifier.

[4] = test system: Wild type MpGDH; assay: Maltose/glucose response current ratio, IPPD/MpGDH-immobilized screen-printed electrode (chronoamperometry); format: biochemical, Mucor prainii; details: for Relative value (%) of Maltose/Glucose / Maltose/Glucose (%): 5 mM additive, immobilized wild type MpGDH; for Relative value (%) of Maltose/Glucose: no modifier = 100%; for Maltose/Glucose (%): 1 mM maltose, 1 mM glucose, +250 mV; for Modification of substrate specificity: immobilized MpGDH
From the text: as §1, §2

[5] = test system: MpGDH; assay: Maltose/glucose response current ratio, unimmobilized MpGDH with mPMS (chronoamperometry); format: biochemical, Mucor prainii; details: for maltose/glucose relative to MpGDH considered as 100%: unimmobilized MpGDH, mPMS, 5 mM maltose, +100 mV
Experimental: as §4

[6] = test system: MrdGDH; assay: Maltose/glucose response current ratio, unimmobilized MrdGDH with mPMS (chronoamperometry); format: biochemical, Mucor RD056860; details: for Maltose/Glucose (%) / Relative value (%) of Maltose/Glucose: 5 mM additive; for Maltose/Glucose (%): mPMS; for Relative value (%) of Maltose/Glucose: no modifier = 100%
Experimental: as §4, §3

[7] = test system: Wild type MpGDH; assay: Maltose/glucose response current ratio, MWCNT/DPPD/MpGDH-immobilized carbon cloth electrode (chronoamperometry); format: biochemical, Mucor prainii; details: for Maltose/Glucose Relative value (%): 50 mM additive, wild type MpGDH on carbon cloth electrode, no modifier = 100%; for Modification of substrate specificity of GDH: carbon cloth electrode, MpGDH
Experimental: The cloth was thoroughly dried and then washed with ultrapure water. Subsequently, 40 mg/ml wild type MpGDH and 20 μl of 100 mM various glucose analogs dissolved in ultrapure water were mixed in equal proportions, and 20 μl of the resulting solution was applied to the […] immobilized electrode. After being allowed to dry at room temperature, the electrode was placed in 25% glutaraldehyde vapor for 20 minutes to immobilize MpGDH by cross-linking. Then, the electrode was subjected to washing with ultrapure water in the same manner as above to obtain an […]-immobilized electrode. Next, this electrode was connected to an ALS electrochemical analyzer […]. Then, the […]-immobilized electrode, an Ag/AgCl reference electrode, and a platinum counter electrode were immersed in PBS, and chronoamperometric measurement was carried out. The applied voltage was set to +250 mV (Ag/AgCl). […] The difference in the response current before and after the addition of maltose was recorded as the response current value of maltose, and the difference in the response current before and after the addition of glucose was recorded as the response current value of glucose. The value calculated by dividing the response current value of maltose by the response current value of glucose was expressed as maltose/glucose (%). […] An […]-immobilized electrode was made in the same manner as Example 4 except that the application step was altered. That is, 20 μl of 40 mg/ml wild type MpGDH was mixed with 10 μl each of 100 mM glycerol and 100 mM L-iditol dissolved in ultrapure water, and 20 μl of the resulting solution was applied to the […] immobilized electrode for the application step. Then, chronoamperometric measurement was carried out according to the method described in Example 4, and the maltose/glucose (%) was calculated.

Row | Modification of substrate specificity [2] | Maltose/Glucose (%) [2] [%] | Relative value (%) of Maltose/Glucose [2] [%] | Modification of substrate specificity [3] | Maltose/Glucose (%) [3] [%] | Relative value (%) of Maltose/Glucose [3] [%] | Structure (SMILES) | Modification of substrate specificity [1] | Maltose/Glucose (%) [1] [%] | Relative value (%) of Maltose/Glucose [1] [%] | Relative value (%) of Maltose/Glucose [4] [%] | Maltose/Glucose (%) [4] [%] | Modification of substrate specificity [4] | maltose/glucose relative to MpGDH considered as 100% [5] [%] | Modification of substrate specificity [6] | Maltose/Glucose (%) [6] [%] | Relative value (%) of Maltose/Glucose [6] [%] | Maltose/Glucose Relative value (%) [7] [%] | Modification of substrate specificity of GDH [7] | Acts as substrate specificity modifier ([5]; enzyme not immobilized)
1 | modified the substrate specificity | 0.09 | 30 | modified the substrate specificity | 0.25 | 76 | OC[C@H]1OC=C[C@@H](O)[C@@H]1O [D-glucal] | modified the substrate specificity | 18.1 | 78 | 69 |  |  |  |  |  |  |  |  | 
2 | modified the substrate specificity | 0.01 | 4 |  |  |  | OC[C@@H](O)[C@H](O)[C@@H](O)[C@H](O)CO [D-iditol] | modified the substrate specificity | 19.3 | 83 | 22 | 0.1 | modified the substrate specificity | 84 | modified the substrate specificity | 21.6 | 70 |  |  | 
3 | modified the substrate specificity | 0 | 0 | modified the substrate specificity | 0.25 | 76 | OC[C@H](O)[C@@H](O)[C@H](O)[C@@H](O)CO [L-iditol] |  |  |  |  |  |  | 68 |  |  |  | 58 | modified the substrate specificity | act as a substrate specificity modifier
4 |  |  |  | modified the substrate specificity | 0.29 | 88 | OC[C@@H](O)[C@@H](O)[C@@H](O)CO [Ribitol, ribitol] |  |  |  | 17 | 0.08 | modified the substrate specificity | 58 | modified the substrate specificity | 22 | 71 |  |  | 

Continued, compound first:

Row | Structure (SMILES) | Modification of substrate specificity [2] | Maltose/Glucose (%) [2] [%] | Relative value (%) of Maltose/Glucose [2] [%] | Modification of substrate specificity [3] | Maltose/Glucose (%) [3] [%] | Relative value (%) of Maltose/Glucose [3] [%] | Modification of substrate specificity [1] | Maltose/Glucose (%) [1] [%] | Relative value (%) of Maltose/Glucose [1] [%] | Relative value (%) of Maltose/Glucose [4] [%] | Maltose/Glucose (%) [4] [%] | Modification of substrate specificity [4] | maltose/glucose relative to MpGDH considered as 100% [5] [%] | Modification of substrate specificity [6] | Maltose/Glucose (%) [6] [%] | Relative value (%) of Maltose/Glucose [6] [%] | Maltose/Glucose Relative value (%) [7] [%] | Modification of substrate specificity of GDH [7] | Acts as substrate specificity modifier ([5]; enzyme not immobilized)
5 | OC[C@@H](O)[C@@H](O)[C@H](O)[C@H](O)CO [D-mannitol] |  |  |  |  |  |  |  |  |  |  |  |  |  |  |  |  | 3 | modified the substrate specificity | 
6 | OCC(O)CO [Glycerol, glycerol] |  |  |  |  |  |  |  |  |  |  |  |  |  |  |  |  | 29 | modified the substrate specificity | 
7 | O=C[C@@H](O)[C@@H](O)[C@H](O)[C@@H](O)CO [L-gulose] | modified the substrate specificity | 0 | 0 | modified the substrate specificity | 0.23 | 70 |  |  |  | 74 | 0.34 | modified the substrate specificity | 56 | modified the substrate specificity | 28 | 90 | 62 | modified the substrate specificity | 
8 | OC[C@@H](O)[C@@H](O)[C@H](O)[C@@H](O)CO [Sorbitol, sorbitol] |  |  |  |  |  |  | modified the substrate specificity | 17 | 73 | 43 | 0.2 | modified the substrate specificity | 67 | modified the substrate specificity | 23 | 74 |  |  | 
9 | OC[C@H]1O[C@H](O[C@H]2O[C@H](CO)[C@@H](O)[C@H](O)[C@H]2O)[C@H](O)[C@@H](O)[C@@H]1O [Trehalose, trehalose] | modified the substrate specificity | 0.08 | 35 | modified the substrate specificity | 0.28 | 85 | modified the substrate specificity | 14.4 | 62 |  |  |  | 72 | modified the substrate specificity | 22 | 71 |  |  | 
10 | OC[C@@H](O)[C@H](O)[C@@H](O)CO [Xylitol, xylitol] |  |  |  |  |  |  |  |  |  |  |  |  |  |  |  |  | 21 | modified the substrate specificity | 
